Test results as given in US8420571B2, “Synergistic herbicidal composition containing fluroxypyr and cyhalofop, metamifop or profoxydim” (Dow AgroSciences, LLC, priority 2009, dated 2013).
“And” between values parts separate entries of the source, which are not always exact repeats. Equal entries are not always repeated.

Experiments:
Format in all cases: in vivo
[1] = tested on: broadleaf signalgrass (Brachiaria platyphylla; BRAPP); experiment: Postemergence herbicidal activity of mixtures in the greenhouse, visual weed control
Description: (§1) Evaluation of Postemergence Herbicidal Activity of Mixtures in the Greenhouse
(§2) Seeds of the desired test plant species were planted in 80% mineral soil/20% grit planting mixture, which typically has a pH of 7.2 and an organic matter content of about 2.9 percent, in plastic pots with a surface area of 128 square centimeters (cm^2). The growing medium was steam sterilized. The plants were grown for 7-19 days in a greenhouse with an approximate 14-hour (h) photoperiod which was maintained at about 29° C. during the day and 26° C. during the night. Nutrients and water were added on a regular basis and supplemental lighting was provided with overhead metal halide 1000-Watt lamps as necessary. The plants were treated with postemergence foliar applications when they reached the third to fourth true leaf stage. All treatments were applied using a randomized complete block trial design, with 4 replications per treatment.
(§3) Treatments consisted of the compounds as listed in Tables 1, 2, 4 and 5 with each compound applied alone and in combination. Formulated amounts of cyhalofop-butyl, metamifop, profoxydim and fluoroxypyr-meptyl ester, were placed in 60 milliliter (mL) glass vials and dissolved in a volume of 60 mL of a water solution containing Agri-dex crop oil concentrate in a 1% volume per volume (v/v) ratio. Compound requirements are based upon a 12 mL application volume at a rate of 187 liters per hectare (L/ha). Spray solutions of the mixtures were prepared by adding the stock solutions to the appropriate amount of dilution solution to form 12 mL spray solution with active ingredients in single and two way combinations. Formulated compounds were applied to the plant material with an overhead Mandel track sprayer equipped with 8002E nozzles calibrated to deliver 187 L/ha at a spray height of 18 inches ([…] (cm)) above average plant canopy.
(§4) The treated plants and control plants were placed in a greenhouse as described above and watered by sub-irrigation to prevent wash-off of the test compounds. Treatments were rated at 14 to 21 days after application as compared to the untreated control plants. Percent visual weed control was scored on a scale of 0 to 100 percent where 0 corresponds to no injury and 100 corresponds to complete kill.
(§5) Colby's equation was used to determine the herbicidal effects expected from the mixtures (Colby, S. R. Calculation of the synergistic and antagonistic response of herbicide combinations. Weeds 1967, 15, 20-22.).
(§6) The following equation was used to calculate the expected activity of mixtures containing two active ingredients, A and B: Expected=A+B−(A×B/100)
(§7) A=observed efficacy of active ingredient A at the same concentration as used in the mixture.
(§8) B=observed efficacy of active ingredient B at the same concentration as used in the mixture.

[2] = tested on: barnyardgrass (Echinochloa crus-galli; ECHCG); experiment: as above
Description: as §1, §2, §3, §4, §5, §6, §7, §8

[3] = tested on: Chinese sprangletop (Leptochloa chinensis; LEFCH); experiment: as above; settings: 21 DAA
Description: as §1, §2, §3, §4, §5, §6, §7, §8

[4] = tested on: giant foxtail (Setaria faberi; SETFA); experiment: as above; settings: 21 DAA, Table 2
Description: as §1, §2, §3, §4, §5, §6, §7, §8

[5] = tested on: winklegrass (Ischaemum rugosum; ISCRU); experiment: as above; settings: 14 DAA, Table 1
Description: as §1, §2, §3, §4, §5, §6, §7, §8

[6] = tested on: barnyardgrass (Echinochloa crus-galli; ECHCG); experiment: Postemergence herbicidal activity of mixtures in the field (drill-seeded rice), visual weed control; settings: 29-36 DAA, Table 3
Description: (§9) Evaluation of Postemergence Herbicidal Activity of Mixtures in the Field
(§10) Field trials were conducted in drill-seeded rice using standard herbicide small plot research methodology. Plots were typically 3×10 meters (m, width×length) in size with 4 replicates per treatment. The rice crop was grown using normal cultural practices for fertilization, seeding, watering, flooding and maintenance to ensure good growth of the crop and the weeds.
(§11) All treatments in the field trials were applied using a carbon dioxide (CO2) backpack sprayer calibrated to apply 187 L/ha spray volume. Commercially available products of cyhalofop-butyl and fluoroxypyr-meptyl were mixed in water at appropriately formulated product rates to achieve the desired rates based on a unit area of application (hectare) to achieve the desired application rates as shown. Treatments were rated at 29 to 36 days after application (DAA) as compared to the untreated control plants. Percent visual weed control was scored on a scale of 0 to 100 percent where 0 corresponds to no injury and 100 corresponds to complete kill.
(§12) All treatment results, both for the single product and mixtures, are an average of 4 replicates and the tank mix interactions are significant at the […] level using Tukey's T-test.
as §5, §6, §7, §8

[7] = tested on: tighthead sprangletop (Leptochloa panicoides; LEFPA); experiment: as above; settings: 29-36 DAA, Table 3
Description: as §9, §10, §11, §12, §5, §6, §7, §8

[8] = Fluroxypyr 50 g ae/ha alone, 21 DAA, Table 4
[9] = Fluroxypyr 70 g ae/ha alone, 14 DAA, Table 1
[10] = Fluroxypyr 100 g ae/ha alone, 21 DAA, Table 4
[11] = Fluroxypyr 200 g ae/ha alone, 21 DAA, Table 4
[12] = Metamifop 7.5 g ai/ha alone, 21 DAA, Table 4
[13] = Metamifop 15 g ai/ha alone, 21 DAA, Table 4

## C[C@@H](Oc1ccc(Oc2ccc(C#N)cc2F)cc1)C(=O)O [Cyhalofop, (2R)-2-[4-(4-cyano-2-fluorophenoxy)phenoxy]-propanoic acid]
[1]; Cyhalofop 253 g ae/ha alone, 14 DAA, Table 1
  % Control BRAPP Ob: 77%
[2]; Cyhalofop 63 g ae/ha alone, 14 DAA, Table 1
  % Control ECHCG Ob: 55%
[2]; Cyhalofop 126 g ae/ha alone, 14 DAA, Table 1
  % Control ECHCG Ob: 73%
[3]; Cyhalofop 63 g ae/ha alone, Table 2
  % Control LEFCH Ob: 67%
[4]; Cyhalofop 63 g ae/ha alone
  % Control SETFA Ob: 82%
[5]; Cyhalofop 126 g ae/ha alone
  % Control ISCRU Ob: 15%
[6]; Cyhalofop 262 g ae/ha alone
  % Control ECHCG Ob: 67%
[7]; Cyhalofop 262 g ae/ha alone
  % Control LEFPA Ob: 33%

## Nc1c(Cl)c(F)nc(OCC(=O)O)c1Cl [Fluroxypyr, [(4-amino-3,5-dichloro-6-fluoro-2-pyridinyl)oxy]acetic acid]
[1]; [8]
  % Control BRAPP Ob: 5%
[1]; [9]
  % Control BRAPP Ob: 22%
[1]; [10]
  % Control BRAPP Ob: 1%
[1]; [11]
  % Control BRAPP Ob: 5%
[2]; [8]
  % Control ECHCG Ob: 0%
[2]; Fluroxypyr 50 g ae/ha alone, 21 DAA, Table 5
  % Control ECHCG Ob: 0%
[2]; [9]
  % Control ECHCG Ob: 14%
[2]; [10]
  % Control ECHCG Ob: 11%
[2]; Fluroxypyr 100 g ae/ha alone, 21 DAA, Table 5
  % Control ECHCG Ob: 0%
[2]; Fluroxypyr 140 g ae/ha alone, 14 DAA, Table 1
  % Control ECHCG Ob: 9%
[2]; [11]
  % Control ECHCG Ob: 6%
[2]; Fluroxypyr 200 g ae/ha alone, 21 DAA, Table 5
  % Control ECHCG Ob: 5%
[2]; Fluroxypyr 280 g ae/ha alone, 14 DAA, Table 1
  % Control ECHCG Ob: 8%
[3]; Fluroxypyr 50 g ae/ha alone, Table 4
  % Control LEFCH Ob: 6%
[3]; Fluroxypyr 70 g ae/ha alone, Table 2
  % Control LEFCH Ob: 28%
[3]; Fluroxypyr 100 g ae/ha alone, Table 5
  % Control LEFCH Ob: 41%
[3]; Fluroxypyr 140 g ae/ha alone, Table 2
  % Control LEFCH Ob: 5%
[3]; Fluroxypyr 200 g ae/ha alone, Table 4
  % Control LEFCH Ob: 41%
[3]; Fluroxypyr 200 g ae/ha alone, Table 5
  % Control LEFCH Ob: 48% and 49%
[4]; Fluroxypyr 140 g ae/ha alone
  % Control SETFA Ob: 50%
[5]; Fluroxypyr 140 g ae/ha alone
  % Control ISCRU Ob: 15%
[6]; Fluroxypyr 580 g ae/ha alone
  % Control ECHCG Ob: 0%
[7]; Fluroxypyr 190 g ae/ha alone
  % Control LEFPA Ob: 0%
[7]; Fluroxypyr 290 g ae/ha alone
  % Control LEFPA Ob: 3%
[7]; Fluroxypyr 580 g ae/ha alone
  % Control LEFPA Ob: 0%

## C[C@@H](Oc1ccc(Oc2nc3ccc(Cl)cc3o2)cc1)C(=O)N(C)c1ccccc1F [Metamifop, (2R)-2-[4-[(6-chloro-2-benzoxazolyl)oxy]-phenoxy]-N-(2-fluorophenyl)-N-methylpropanamide]
[1]; [12]
  % Control BRAPP Ob: 25%
[1]; [13]
  % Control BRAPP Ob: 54%
[2]; [12]
  % Control ECHCG Ob: 5%
[2]; [13]
  % Control ECHCG Ob: 33%
[2]; Metamifop 30 g ai/ha alone, 21 DAA, Table 4
  % Control ECHCG Ob: 74%
[3]; Metamifop 7.5 g ai/ha alone, Table 4
  % Control LEFCH Ob: 23%
[3]; Metamifop 30 g ai/ha alone, Table 4
  % Control LEFCH Ob: 88%

## CCCC(=NOCC(C)Oc1ccc(Cl)cc1)C1=C(O)CC(C2CCCSC2)CC1=O (stereo not shown) [Profoxydim, 2-[1-[[2-(4-chlorophenoxy)propoxy]imino]-butyl]-3-hydroxy-5-(tetrahydro-2H-thiopyran-3-yl)-2-cyclohexen-1-one]
[2]; Profoxydim 25 g ai/ha alone, 21 DAA, Table 5
  % Control ECHCG Ob: 54%
[3]; Profoxydim 25 g ai/ha alone, Table 5
  % Control LEFCH Ob: 61%
[3]; Profoxydim 50 g ai/ha alone, Table 5
  % Control LEFCH Ob: 78%
